Measurements: US9693556B2, “Herbicidal pyridazinone derivatives” (SYNGENTA LIMITED, priority 2011, dated 2017)

How the values were obtained:
Type in all cases: in vivo
[1] = system: Alopecurus myosuroides (ALOMY); test: Pre-emergence herbicidal glasshouse test on Alopecurus myosuroides; conditions: pre-emergence application, Alopecurus myosuroides, damage score 1-5
In short: (§1)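 Steps: sow seeds in standard soil; cultivate 1 d (pre-) or 8 d (post-emergence) at 24/16 °C, 14 h light, 65% humidity; spray 1000 g/h in acetone/water plus Tween 20; grow on, watering twice daily; score percentage damage after 13 d.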

[2] = system: Setaria faberi (SETFA); test: Pre-emergence herbicidal glasshouse test on Setaria faberi; conditions: pre-emergence application, Setaria faberi, damage score 1-5
In short: as §1

[3] = system: Echinochloa crus-galli (ECHCG); test: Pre-emergence herbicidal glasshouse test on Echinochloa crus-galli; conditions: pre-emergence application, Echinochloa crus-galli, damage score 1-5
In short: as §1

[4] = system: Solanum nigrum (SOLNI); test: Pre-emergence herbicidal glasshouse test on Solanum nigrum; conditions: pre-emergence application, Solanum nigrum, damage score 1-5
In short: as §1

[5] = system: Amaranthus retoflexus (AMARE); test: Pre-emergence herbicidal glasshouse test on Amaranthus retoflexus; conditions: pre-emergence application, Amaranthus retoflexus, damage score 1-5
In short: as §1

[6] = system: Ipomoea hederacea (IPOHE); test: Pre-emergence herbicidal glasshouse test on Ipomoea hederacea; conditions: pre-emergence application, Ipomoea hederacea, damage score 1-5
In short: as §1

[7] = system: Alopecurus myosuroides (ALOMY); test: Post-emergence herbicidal glasshouse test on Alopecurus myosuroides; conditions: post-emergence application, Alopecurus myosuroides, damage score 1-5
In short: as §1

[8] = system: Setaria faberi (SETFA); test: Post-emergence herbicidal glasshouse test on Setaria faberi; conditions: post-emergence application, Setaria faberi, damage score 1-5
In short: as §1

[9] = system: Echinochloa crus-galli (ECHCG); test: Post-emergence herbicidal glasshouse test on Echinochloa crus-galli; conditions: post-emergence application, Echinochloa crus-galli, damage score 1-5
In short: as §1

[10] = system: Solanum nigrum (SOLNI); test: Post-emergence herbicidal glasshouse test on Solanum nigrum; conditions: post-emergence application, Solanum nigrum, damage score 1-5
In short: as §1

[11] = system: Amaranthus retoflexus (AMARE); test: Post-emergence herbicidal glasshouse test on Amaranthus retoflexus; conditions: post-emergence application, Amaranthus retoflexus, damage score 1-5
In short: as §1

[12] = system: Ipomoea hederacea (IPOHE); test: Post-emergence herbicidal glasshouse test on Ipomoea hederacea; conditions: post-emergence application, Ipomoea hederacea, damage score 1-5
In short: as §1

With Cc1ccc(Cl)cc1-n1c(-c2cccc(F)c2)ncc(-c2cnn(C)c(=O)c2O)c1=O [Compound 10.004] the “PRE Application ALOMY” value [1] was 1 (1=0-19% damage), the “PRE Application SETFA” value [2] was 1 (1=0-19% damage) and the “PRE Application ECHCG” value [3] was 1 (1=0-19% damage). For the same compound, the “PRE Application SOLNI” value [4] was 1 (1=0-19% damage), the “PRE Application AMARE” value [5] was 2 (2=20-39% damage) and the “PRE Application IPOHE” value [6] was 1 (1=0-19% damage). The “POST Application ALOMY” value [7] was 1 (1=0-19% damage), the “POST Application SETFA” value [8] was 3 (3=40-59% damage) and the “POST Application ECHCG” value [9] was 4 (4=60-79% damage). The “POST Application SOLNI” value [10] was 5 (5=80-100% damage), the “POST Application AMARE” value [11] was 5 (5=80-100% damage) and the “POST Application IPOHE” value [12] was 4 (4=60-79% damage).
